{"source": "patent US7282469B2", "about": "“4-trifluoromethylpyrazolyl-substituted pyridines and pyrimidines” (Bayer CropScience GmbH, priority 2002, dated 2007)", "key": {"Digitaria sanguinalis": {"tested_on": "Digitaria sanguinalis", "experiment": "Weed plant herbicidal activity, pre-emergence", "format": "in vivo", "settings": "320 g of active substance per hectare, visual scoring after 3 to 4 weeks", "description": "(§1) 1. Weed Plant Herbicidal Activity and Crop Plant Tolerance, Pre-emergence\n(§2) Seeds of monocotyledonous and dicotyledonous weed plants and also of crop plants are placed in sandy loam soil in cardboard pots and are covered with soil. The compounds of the invention, formulated as wettable powders or emulsifiable concentrates, are then applied as an aqueous suspension or emulsion, respectively, and at different dosages to the surface of the covering soil at an application rate of 600 to 800 l of water per ha (converted). Following treatment, the pots are placed in a greenhouse and kept under good growth conditions for the weeds. Visual scoring of the plant damage or emergence damage is made after the test plants have emerged, after an experimental period of 3 to 4 weeks, in comparison with untreated controls. In this case, for example, the compounds of the invention from examples nos. 1.7 and 4.1 at a dosage of 320 g of active substance per hectare display a 100% activity against Digitaria sanguinalis, Setaria viridis and Amaranthus retroflexus. At the same dosage these compounds of the invention cause no damage to the crop plants Oryza sativa (rice) and Glycine max (soybean). The compound of the invention from example no. […] At the same dosage this compound of the invention causes no damage to the crop plants Oryza sativa (rice), Zea mays (maize) and Glycine max (soybean). At a dosage of 320 g of active substance per hectare, the compound of the invention from example no."}, "Setaria viridis": {"tested_on": "Setaria viridis", "experiment": "Weed plant herbicidal activity, pre-emergence", "format": "in vivo", "settings": "visual scoring after 3 to 4 weeks", "description": "as §1, §2"}, "Veronica persica": {"tested_on": "Veronica persica", "experiment": "Weed plant herbicidal activity, pre-emergence", "format": "in vivo", "settings": "20 g of active substance per hectare, visual scoring after 3 to 4 weeks", "description": "as §1, §2"}, "Amaranthus retroflexus": {"tested_on": "Amaranthus retroflexus", "experiment": "Weed plant herbicidal activity, pre-emergence", "format": "in vivo", "settings": "visual scoring after 3 to 4 weeks", "description": "as §1, §2"}, "Alopecurus myosuroides": {"tested_on": "Alopecurus myosuroides", "experiment": "Weed plant herbicidal activity, pre-emergence", "format": "in vivo", "settings": "20 g of active substance per hectare, visual scoring after 3 to 4 weeks", "description": "as §1, §2"}, "Glycine max (soybean)": {"tested_on": "Glycine max (soybean)", "experiment": "Crop plant tolerance, pre-emergence", "format": "in vivo", "description": "as §1, §2"}, "Zea mays (maize)": {"tested_on": "Zea mays (maize)", "experiment": "Crop plant tolerance, pre-emergence", "format": "in vivo", "settings": "20 g of active substance per hectare", "description": "as §1, §2"}, "Oryza sativa (rice)": {"tested_on": "Oryza sativa (rice)", "experiment": "Crop plant tolerance, pre-emergence", "format": "in vivo", "description": "as §1, §2"}, "[1]": {"settings": "20 g of active substance per hectare"}, "[2]": {"settings": "320 g of active substance per hectare"}}, "data": [{"smiles": "Cc1cnc(-n2cc(C(F)(F)F)cn2)nc1Oc1cccc(C(F)(F)F)c1", "note": "[Example 1.7, 5-methyl-4-(3-trifluoromethylphenoxy)-2-(4-trifluoromethyl-1H-1-pyrazolyl)pyrimidine]", "values": [{"measurement": "activity against Digitaria sanguinalis", "setting": "Digitaria sanguinalis", "result": 100, "unit": "%"}, {"measurement": "activity against Setaria viridis", "setting": "Setaria viridis; [1]", "result": "at least 90%"}, {"measurement": "activity against Setaria viridis", "setting": "Setaria viridis; [2]", "result": 100, "unit": "%"}, {"measurement": "activity against Veronica persica", "setting": "Veronica persica", "result": "at least 90%"}, {"measurement": "activity against Amaranthus retroflexus", "setting": "Amaranthus retroflexus; [1]", "result": "at least 90%"}, {"measurement": "activity against Amaranthus retroflexus", "setting": "Amaranthus retroflexus; [2]", "result": 100, "unit": "%"}, {"measurement": "activity against Alopecurus myosuroides", "setting": "Alopecurus myosuroides", "result": "at least 90%"}, {"measurement": "melting point", "result": "103 to 105", "unit": "°C"}, {"measurement": "damage to the crop plant Glycine max (soybean)", "setting": "Glycine max (soybean); [1]", "result": "no damage"}, {"measurement": "damage to the crop plant Glycine max (soybean)", "setting": "Glycine max (soybean); [2]", "result": "no damage"}, {"measurement": "damage to the crop plant Zea mays (maize)", "setting": "Zea mays (maize)", "result": "no damage"}, {"measurement": "damage to the crop plant Oryza sativa (rice)", "setting": "Oryza sativa (rice); [1]", "result": "no damage"}, {"measurement": "damage to the crop plant Oryza sativa (rice)", "setting": "Oryza sativa (rice); [2]", "result": "no damage"}]}]}
